Like-named read-outs stand apart in the source and are kept apart here.
How the values were obtained:
[1] = system: spontaneous gastric acid secretion; assay: Gastric acid secretion-inhibiting effect according to Shay's method; type: in vivo, female OFA rats; settings: for Gastric acid, change / Gastric juice, change: vs control; for Gastric acid, treated: titration with 0.1N NaOH; for ED50: po, gastric acid, Shay rat; for inhibitor effect on gastric acid secretion, in words: compared with reference drugs
Experimental: After being starved for 24 hours, female OFA rats weighing 130 to 160 g were orally treated with the compounds to be tested. (15 animals were used for each dose.) One hour later laparotomy and pylorus ligature were carried out under ether anaesthesia according to Shay [Gastroenterology 5, 43 (1945)]. After 5 hours the animals were killed by an overdose of ether, their stomaches were excised and the volume and acid content of the gastric juice were determined. The acid was measured by titration with 0.1N NaOH, by using Topfer's indicator.

[2] = system: necrosis induced by ethanol containing hydrochloric acid; assay: Cytoprotective effect (modified Robert's test); type: in vivo; settings: for Bleedings, change: vs control; for ED50: po, cytoprotection
Experimental: The modified Robert's test [Gastroenterology 17, 761 (1979)] was used. The necrotizing agent (100 ml of abs. ethanol containing 2 ml of concentrated hydrochloric acid) was orally administered in a volume of 0.5 ml/100 g by 30 minutes after giving the compound to be tested. (12 animals were used for each dose.) After 1 hour the animals were killed by ether and the bleedings on the glandular part of their stomach were evaluated.

[3] = system: gastric ulcer after pylorus ligature; assay: Gastric ulcer-inhibiting effect in rats operated according to Shay's method; type: in vivo, female OFA rats; settings: Rattus norvegicus, po, 18 h, p.o.
Experimental: Female OFA rats starved for 24 hours weighing 150 to 160 g were used. (The animals were allowed to drink water ad libitum). The animals were orally treated with the substance to be tested and after 1 hour laparotomy and pylorus ligature according to Shay [Gastroenterology 5, 43 (1945)] were performed under ether anaesthesia. After 18 hours the number and size of ulcers formed on the membranaceous part of the stomach were examined under microscope. The evaluation was made in relation to the control group and the ED50 values were determined. The sizes of the ulcers were expressed as score values from 0.5 to 32.

[4] = system: reserpine-induced gastric ulcer; assay: Inhibition of the reserpine-induced gastric ulcer; type: in vivo, female OFA rats; settings: Rattus norvegicus, po, 18 h, p.o., reserpine 5 mg/kg s.c.
Experimental: After being starved for 24 hours, female OFA rats were orally treated with the compounds to be tested and then subcutaneously (s.c.) with 5 mg/kg of reserpine after 1 hour. After 18 hours the animals were killed and their stomach were examined under microscope. The evaluation was performed as described under the preceding paragraph 1.

[5] = read-out: ED50 related to the number of ulcers
[6] = read-out: ED50 related to the occurrance of ulcers
[7] = read-out: ED50 related to the severity of ulcers

| Compound | Gastric juice, treated ([1]; 5 mg/kg p.o.) [mL] | Gastric acid, change ([1]; 5 mg/kg p.o.) [%] | Gastric juice, change ([1]; 5 mg/kg p.o.) [%] | Gastric acid, treated ([1]; 5 mg/kg p.o.) [mL] | Gastric juice, treated ([1]; 10 mg/kg p.o.) [mL] | Gastric acid, change ([1]; 10 mg/kg p.o.) [%] | Gastric juice, change ([1]; 10 mg/kg p.o.) [%] | Gastric acid, treated ([1]; 10 mg/kg p.o.) [mL] | Gastric juice, treated ([1]; 20 mg/kg p.o.) [mL] | Gastric acid, change ([1]; 20 mg/kg p.o.) [%] | Gastric juice, change ([1]; 20 mg/kg p.o.) [%] | Gastric acid, treated ([1]; 20 mg/kg p.o.) [mL] | ED50 [1] [mg/kg] | Bleedings, treated ([2]; 5 mg/kg p.o.) [mm] | Bleedings, change ([2]; 5 mg/kg p.o.) [%] | Bleedings, treated ([2]; 10 mg/kg p.o.) [mm] | Bleedings, change ([2]; 10 mg/kg p.o.) [%] | Bleedings, treated ([2]; 20 mg/kg p.o.) [mm] | Bleedings, change ([2]; 20 mg/kg p.o.) [%] | ED50 [2] [mg/kg] | other results |
| --- | --- | --- | --- | --- | --- | --- | --- | --- | --- | --- | --- | --- | --- | --- | --- | --- | --- | --- | --- | --- | --- |
| COc1ccc2[nH]c([S+]([O-])Cc3ncc(C)c(OC)c3C)nc2c1 (centres unmarked) [Omeprazole, 2-[[(3,5-dimethyl-4-methoxypyridin-2-il)-methyl]-sulfinyl]-5-methoxy-1H-benzimidazole, reference compound] | 5.40 | -35.4 | -21.5 | 1.75 | 5.47 | -37.3 | -20.5 | 1.70 | 4.30 | -74.7 | -38.4 | 0.71 | 10.5 | 61.8 | -27.1 | 46.0 | -45.8 | 14.2 | -83.8 | 10 | ED50 [3, 5]: 9.2 mg/kg; ED50 [3, 6]: 17 mg/kg; ED50 [3, 7]: 11 mg/kg; ED50 [4, 5]: 17 mg/kg; ED50 [4, 6]: 24 mg/kg; ED50 [4, 7]: 20 mg/kg |
| CCN(C)c1ccccc1CSc1nc(C)cc(=O)[nH]1 [Example 10] |  |  |  |  | 5.23 | -32.5 | -13.7 | 1.89 | 5.23 | -60.3 | -18.0 | 1.23 | 15.5 |  |  |  |  |  |  |  | Gastric juice, treated ([1]; 40 mg/kg p.o.): 5.39 mL; Gastric acid, change ([1]; 40 mg/kg p.o.): -87.3%; Gastric juice, change ([1]; 40 mg/kg p.o.): -24.8%; Gastric acid, treated ([1]; 40 mg/kg p.o.): 0.45 mL; inhibitor effect on gastric acid secretion, in words [1]: equiactive to the NC-1300 reference drug |
| CN(C)c1ccccc1CSc1nc(-c2ccccc2)cc(=O)[nH]1 [Example 5, 2-(2-dimethylamino-benzyl)thio-6-phenyl-4(3H)-pyrimidinone] | 5.77 | -24.9 | -17.3 | 2.11 | 5.51 | -62.0 | -19.6 | 2.06 | 4.33 | -86.3 | -37.1 | 0.37 | 8.1 | 73.5 | -26.3 | 47.6 | -52.3 | 24.3 | -81.7 | 9.9 | Gastric juice, treated ([1]; 40 mg/kg p.o.): 6.80 mL; Gastric acid, change ([1]; 40 mg/kg p.o.): -94.5%; Gastric juice, change ([1]; 40 mg/kg p.o.): +6.8%; Gastric acid, treated ([1]; 40 mg/kg p.o.): 0.18 mL; inhibitor effect on gastric acid secretion, in words [1]: more active then either of both reference drugs |

— patent US5037830A, “Novel thiouracyl derivatives, pharmaceutical compositions containing them and process for preparing same” (Richter Gedeon Vegyeszeti Gyar RT, priority 1989, dated 1991)
